Each block holds one compound with its values, some of them ahead of it. The source made the active and inactive calls. No cut-off for these calls is given here.
How the values were obtained:
[1] = biological target: POU domain, class 5, transcription factor 1 (Homo sapiens) (UniProt Q01860); test: Induction of OCT4 (unknown origin) expressed in HEK cells assessed as increase in luminescence signal measured after 24 hrs by luciferase reporter assay; assay type: cell-based
[2] = Cytotoxicity against human HFF cells assessed as inhibition of cell viability measured after 48 hrs by MTT assay; assay type: toxicity, cell-based
[3] = biological target: POU domain, class 5, transcription factor 1 (Homo sapiens) (UniProt Q01860); test: Induction of OCT4 (unknown origin) expressed in human NCCIT reporter cells assessed as increase in luminescence signal measured after 24 hrs by luciferase reporter assay; assay type: cell-based
NCCIT [4] = test: Cytotoxicity against human NCCIT cells assessed as inhibition of cell viability measured after 48 hrs by MTT assay; assay type: functional, cell-based
[5] = biological target: Homeobox protein NANOG (Homo sapiens) (UniProt Q9H9S0); test: Induction of NANOG (unknown origin) expressed in human NCCIT reporter cells assessed as increase in luminescence signal measured after 24 hrs by luciferase reporter assay; assay type: cell-based
Homeobox protein NANOG (Homo sapiens), sequence (Q9H9S0 whole entry): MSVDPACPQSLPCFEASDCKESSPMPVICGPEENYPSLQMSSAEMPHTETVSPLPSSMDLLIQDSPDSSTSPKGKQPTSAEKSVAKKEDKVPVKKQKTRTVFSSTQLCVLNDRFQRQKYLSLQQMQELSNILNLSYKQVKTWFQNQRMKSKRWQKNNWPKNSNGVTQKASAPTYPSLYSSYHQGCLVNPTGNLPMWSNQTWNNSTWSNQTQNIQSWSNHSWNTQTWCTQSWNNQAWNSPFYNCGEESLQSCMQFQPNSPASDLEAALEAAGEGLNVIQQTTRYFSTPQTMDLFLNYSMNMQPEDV

Fibroblast [6] = test: Reprogramming activity in human Fibroblast cells harbouring LTR7-GFP assessed as induction of iPSCs from somatic cells by measuring TRA-160 positive colonies at 5 uM measured after 7 days in presence of SOX2/KLF4/L-MYC/LIN28 (SKML); assay type: functional, cell-based; conditions: time 7.0 day
[7] = biological target: Splicing factor 3B subunit 1 (Homo sapiens) (UniProt O75533); test: Thermal stabilization of SF3B1 (unknown origin) assessed as increase in denaturation temperature by thermal shift assay (reference value: 58.5+/-2.05 degreeC)
Splicing factor 3B subunit 1 (Homo sapiens), sequence (O75533 whole entry): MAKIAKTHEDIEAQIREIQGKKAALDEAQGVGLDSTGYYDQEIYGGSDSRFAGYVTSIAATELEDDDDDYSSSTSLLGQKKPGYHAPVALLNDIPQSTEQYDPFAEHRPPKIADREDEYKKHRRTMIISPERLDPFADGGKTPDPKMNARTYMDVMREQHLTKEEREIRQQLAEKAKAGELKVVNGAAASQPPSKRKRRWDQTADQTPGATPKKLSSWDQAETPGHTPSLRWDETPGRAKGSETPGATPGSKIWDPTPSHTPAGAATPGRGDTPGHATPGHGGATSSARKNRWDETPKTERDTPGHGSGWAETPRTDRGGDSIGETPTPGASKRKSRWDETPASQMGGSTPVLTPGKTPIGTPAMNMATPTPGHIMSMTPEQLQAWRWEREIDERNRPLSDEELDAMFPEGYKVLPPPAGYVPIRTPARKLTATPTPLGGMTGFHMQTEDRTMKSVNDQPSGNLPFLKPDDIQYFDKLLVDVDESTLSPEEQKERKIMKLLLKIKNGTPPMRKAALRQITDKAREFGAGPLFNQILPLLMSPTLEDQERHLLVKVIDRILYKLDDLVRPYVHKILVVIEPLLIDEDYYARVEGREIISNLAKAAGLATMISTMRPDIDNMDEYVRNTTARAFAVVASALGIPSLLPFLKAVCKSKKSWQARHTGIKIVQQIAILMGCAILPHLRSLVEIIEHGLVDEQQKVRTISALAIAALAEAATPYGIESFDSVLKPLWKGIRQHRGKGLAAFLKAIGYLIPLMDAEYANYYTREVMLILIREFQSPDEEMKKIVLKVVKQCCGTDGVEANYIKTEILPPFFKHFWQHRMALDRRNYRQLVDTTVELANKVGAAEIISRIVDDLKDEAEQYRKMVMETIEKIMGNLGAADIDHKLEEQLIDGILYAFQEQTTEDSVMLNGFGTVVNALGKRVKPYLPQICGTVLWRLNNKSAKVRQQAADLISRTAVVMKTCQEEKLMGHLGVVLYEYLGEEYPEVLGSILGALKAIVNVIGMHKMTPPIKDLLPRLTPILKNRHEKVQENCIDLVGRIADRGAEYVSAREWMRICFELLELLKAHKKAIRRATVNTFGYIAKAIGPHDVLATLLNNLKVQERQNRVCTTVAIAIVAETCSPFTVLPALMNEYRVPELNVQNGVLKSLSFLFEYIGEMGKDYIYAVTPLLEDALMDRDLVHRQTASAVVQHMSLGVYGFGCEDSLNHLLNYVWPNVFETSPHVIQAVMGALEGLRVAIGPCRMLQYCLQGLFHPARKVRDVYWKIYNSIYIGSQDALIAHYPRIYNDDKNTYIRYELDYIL

NCCIT [8] = test: Upregulation of OCT4 level in human NCCIT cells measured after 5 days by immunoblot analysis; assay type: functional, cell-based; conditions: dose 1-50 µM, time 5.0 day
Drosophila [9] = test: Anti-aging activity in Drosophila assessed as increase in life span at early adulthood at 20 uM measured upto 60 days relative to control; assay type: functional; conditions: 1440 h, time <= 60 day
[10] = biological target: POU domain, class 5, transcription factor 1 (Homo sapiens) (UniProt Q01860); test: Induction of OCT4 in human HFF cells measured after 8 hrs; assay type: cell-based; conditions: filed as activator
Caenorhabditis elegans [11] = test: Anti-aging activity in wild type Caenorhabditis elegans N2 assessed as increase in life extension at 0.5 uM measured upto 40 days; assay type: functional, organism-based; conditions: time <= 40.0 day
Caenorhabditis elegans [12] = test: Anti-aging activity in wild type Caenorhabditis elegans N2 assessed as increase in survival rate measured after 48 hrs under oxidative stress; assay type: functional, organism-based
Fibroblast [13] = test: Upregulation of OCT4 level in human Fibroblast cells measured after 5 days by immunoblot analysis; assay type: functional, cell-based; conditions: dose 5-50 µM, time 5.0 day
Drosophila [14] = test: Anti-aging activity in Drosophila assessed as increase in life span at late adulthood at 20 uM measured upto 60 days; assay type: functional, organism-based; conditions: time <= 60.0 day
NCCIT [15] = test: Upregulation of SOX2 expression in human NCCIT cells at 5 to 10 uM measured after 2 days by qRT-PCR analysis; assay type: functional, cell-based; conditions: dose 5-10 µM, time 2.0 day
NCCIT [16] = test: Upregulation of STAT3 expression in human NCCIT cells at 5 to 10 uM measured after 2 days by qRT-PCR analysis; assay type: functional, cell-based; conditions: dose 5-10 µM, time 2.0 day
NCCIT [17] = test: Upregulation of SOX2 level in human NCCIT cells by fluorescence-activated cell sorter analysis; assay type: functional, cell-based
HFF [18] = test: Effect on SOX2 expression in human HFF cells; assay type: functional, cell-based
HFF [19] = test: Effect on OCT expression in human HFF cells; assay type: functional, cell-based
[20] = Upregulation of NANOG expression in human NCCIT cells assessed as fold increase at 5 to 10 uM measured after 2 days by qRT-PCR analysis; assay type: functional; conditions: dose 5-10 µM; time 2 day
Caenorhabditis elegans [21] = test: Anti-aging activity in Caenorhabditis elegans […] assessed as induction of daf-16 nuclear translocation measured after 24 hrs; assay type: functional, organism-based
[22] = Upregulation of OCT4 expression in human NCCIT cells assessed as fold increase at 5 to 10 uM measured after 2 days by qRT-PCR analysis; assay type: functional; conditions: dose 5-10 µM; time 2 day
HFF [23] = test: Effect on NANOG expression in human HFF cells; assay type: functional, cell-based
NCCIT [24] = test: Upregulation of E-cadherin level in human NCCIT cells by fluorescence-activated cell sorter analysis; assay type: functional, cell-based
NCCIT [25] = test: Upregulation of E-cadherin expression in human NCCIT cells at 5 to 10 uM measured after 2 days by qRT-PCR analysis; assay type: functional, cell-based; conditions: dose 5-10 µM, time 2.0 day
NCCIT [26] = test: Upregulation of REX1 expression in human NCCIT cells at 5 to 10 uM measured after 2 days by qRT-PCR analysis; assay type: functional, cell-based; conditions: dose 5-10 µM, time 2.0 day
Drosophila [27] = test: Anti-aging activity in Drosophila assessed as increase in life span at 20 uM measured upto 60 days relative to control; assay type: functional; conditions: 1440 h, time <= 60 day
NCCIT [28] = test: Upregulation of NANOG level in human NCCIT cells by fluorescence-activated cell sorter analysis; assay type: functional, cell-based
Fibroblast [29] = test: Reduction in OCT4 expression in SF3B1 siRNA human Fibroblast cells harbouring LTR7-EGFP; assay type: functional, cell-based
NCCIT [30] = test: Upregulation of OCT4 level in human NCCIT cells by fluorescence-activated cell sorter analysis; assay type: functional, cell-based
[31] = Membrane permeability of the compound; assay type: ADME
Drosophila [32] = test: Anti-aging activity in Drosophila; assay type: functional, organism-based
Albumin = Albumin (Homo sapiens, UniProt P02768); test: Protein binding in serum albumin (unknown origin); assay type: ADME; conditions: read-out: PB (converted)
Albumin, sequence (P02768 whole entry): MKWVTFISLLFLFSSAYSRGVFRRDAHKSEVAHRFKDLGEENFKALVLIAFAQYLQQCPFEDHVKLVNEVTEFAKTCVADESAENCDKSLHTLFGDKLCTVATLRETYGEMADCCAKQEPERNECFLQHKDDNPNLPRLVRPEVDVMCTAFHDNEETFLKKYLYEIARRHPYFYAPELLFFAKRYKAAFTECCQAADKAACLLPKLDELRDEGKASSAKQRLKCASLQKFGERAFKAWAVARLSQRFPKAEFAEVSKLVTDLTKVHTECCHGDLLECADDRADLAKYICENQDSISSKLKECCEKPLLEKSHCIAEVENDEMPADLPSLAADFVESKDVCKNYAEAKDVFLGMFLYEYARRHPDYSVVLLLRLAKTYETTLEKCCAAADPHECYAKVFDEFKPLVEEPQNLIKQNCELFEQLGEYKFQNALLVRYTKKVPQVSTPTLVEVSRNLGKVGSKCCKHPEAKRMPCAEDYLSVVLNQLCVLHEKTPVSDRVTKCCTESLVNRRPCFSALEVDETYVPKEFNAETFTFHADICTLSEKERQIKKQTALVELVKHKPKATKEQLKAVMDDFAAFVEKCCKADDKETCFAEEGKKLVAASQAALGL

Drosophila [33] = test: Anti-aging activity in Drosophila assessed as extension of life span; assay type: functional, organism-based

POU domain, class 5, transcription factor 1 (Homo sapiens), sequence (Q01860 whole entry, the tested form may be a part): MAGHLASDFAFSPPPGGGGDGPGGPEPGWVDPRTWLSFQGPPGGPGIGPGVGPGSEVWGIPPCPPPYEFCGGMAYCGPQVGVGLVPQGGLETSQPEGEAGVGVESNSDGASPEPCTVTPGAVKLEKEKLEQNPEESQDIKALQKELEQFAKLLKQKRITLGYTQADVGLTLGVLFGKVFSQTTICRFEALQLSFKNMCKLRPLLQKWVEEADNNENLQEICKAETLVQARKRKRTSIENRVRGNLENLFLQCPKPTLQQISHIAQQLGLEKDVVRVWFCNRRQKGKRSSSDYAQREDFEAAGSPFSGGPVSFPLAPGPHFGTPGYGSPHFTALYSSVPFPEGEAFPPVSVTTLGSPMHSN

SMILES: CC(C)(C)c1csc(Nc2ccccc2)n1
- IC50 at 48 h [2]: > 20 µM
- IC50 (NCCIT [4]): > 20 µM

SMILES: CCOC(=O)c1csc(Nc2ccc(OC)cc2)n1
- Activity [1]: inactive
- IC50 at 48 h [2]: > 20 µM
- Activity [3]: inactive
- IC50 (NCCIT [4]): > 20 µM
- Activity [5]: inactive

SMILES: CCOC(=O)c1csc(Nc2ccc(C)cc2)n1
- Activity [1]: inactive
- IC50 at 48 h [2]: > 20 µM
- Activity [3]: inactive
- IC50 (NCCIT [4]): > 20 µM
- Activity [5]: inactive

SMILES: Cc1ccc(Nc2nc(C(C)(C)C)cs2)cc1
- IC50 at 48 h [2]: > 20 µM
- IC50 (NCCIT [4]): > 20 µM

SMILES: CC(C)(C)c1csc(Nc2ccc(Cl)cc2)n1
- Activity (Fibroblast [6]): inactive
- IC50 at 48 h [2]: > 20 µM
- IC50 (NCCIT [4]): 19.7 µM

SMILES: Cc1ccc(Nc2nc(C(C)(C)C)cs2)c(C)c1
- IC50 at 48 h [2]: > 20 µM
- IC50 (NCCIT [4]): > 20 µM

SMILES: Clc1ccc(Nc2nc(-c3ccc4ccccc4c3)cs2)cc1
- IC50 at 48 h [2]: > 20 µM
- IC50 (NCCIT [4]): > 20 µM

SMILES: Clc1ccc(Nc2nc(-c3ccccc3)cs2)cc1
- IC50 at 48 h [2]: > 20 µM
- IC50 (NCCIT [4]): > 20 µM

SMILES: CCOC(=O)c1csc(Nc2ccc(C)cc2Br)n1
- Activity ([1]; filed as activator): Active
- Activity (Fibroblast [6]): Active
- IC50 at 48 h [2]: > 20 µM
- Activity [3]: inactive
- IC50 (NCCIT [4]): > 20 µM
- Activity [5]: inactive

SMILES: Cc1ccccc1Nc1nc(C(C)(C)C)cs1
- IC50 at 48 h [2]: > 20 µM
- IC50 (NCCIT [4]): 9.38 µM

SMILES: CCOC(=O)c1csc(Nc2ccc(C#N)cc2)n1
- Activity [1]: inactive
- IC50 at 48 h [2]: > 20 µM
- Activity [3]: inactive
- IC50 (NCCIT [4]): > 20 µM
- Activity [5]: inactive

SMILES: Cc1cccc(Nc2nc(C(C)(C)C)cs2)c1C
- T [7]: 64.9 °C
- Activity (NCCIT [8]): Dose-Dependent Effect
- ILS at 20 µM (Drosophila [9]): 10%
- Activity [10]: Active
- Activity (Caenorhabditis elegans [11]): Active
- Activity (Caenorhabditis elegans [12]): Active
- Activity (Fibroblast [13]): Dose-Dependent Effect
- ILS (Drosophila [14]): inactive
- Activity ([1]; filed as activator): Active
- Activity (Fibroblast [6]): Active
- IC50 at 48 h [2]: > 20 µM
- Activity (NCCIT [15]): Active
- Activity (NCCIT [16]): Active
- Activity (NCCIT [17]): Active
- Activity (HFF [18]): Active
- Activity (HFF [19]): Active
- fold change (FC) [20]: 30
- Activity ([3]; filed as activator): Active
- Activity (Caenorhabditis elegans [21]): Active
- fold change (FC) [22]: 3
- Activity (HFF [23]): Active
- Activity (NCCIT [24]): Active
- Activity (NCCIT [25]): Active
- Activity (NCCIT [26]): Active
- IC50 (NCCIT [4]): 10.9 µM
- ILS at 20 µM (Drosophila [27]): 5%
- Activity ([5]; filed as activator): Active
- Activity (NCCIT [28]): Active
- Activity (Fibroblast [29]): Active
- Activity (NCCIT [30]): Active

SMILES: CCOC(=O)c1csc(Nc2ccc(F)cc2F)n1
- Activity ([1]; filed as activator): Active
- IC50 at 48 h [2]: > 20 µM
- Activity [3]: inactive
- IC50 (NCCIT [4]): > 20 µM
- Activity [5]: inactive

SMILES: Cc1ccc(-c2cn3cc(C)ccc3n2)cc1
- Activity (Fibroblast [6]): Active

SMILES: Cc1cccc(Nc2nc(C(C)(C)C)cs2)c1
- IC50 at 48 h [2]: 11.6 µM
- IC50 (NCCIT [4]): 5.96 µM

SMILES: CCOC(=O)c1csc(Nc2ccc([N+](=O)[O-])cc2)n1
- Activity ([1]; filed as activator): Active
- IC50 at 48 h [2]: > 20 µM
- Activity [3]: inactive
- IC50 (NCCIT [4]): > 20 µM
- Activity [5]: inactive

SMILES: C=C[C@@]1(C)CC(=O)[C@]2(O)[C@@]3(C)[C@@H](O)CCC(C)(C)[C@@H]3[C@H](O)[C@H](OC(C)=O)[C@@]2(C)O1
- Activity (Drosophila [33]): inactive

Continued, in another order:

- Activity [1]: inactive
- Activity [3]: inactive
- Activity [5]: inactive
SMILES: CCOC(=O)c1csc(Nc2cc(OC)ccc2OC)n1
- IC50 at 48 h [2]: > 20 µM
- IC50 (NCCIT [4]): > 20 µM

- Activity [1]: inactive
- Activity [3]: inactive
- Activity [5]: inactive
SMILES: CCOC(=O)c1csc(Nc2ccc(O)cc2)n1
- IC50 at 48 h [2]: > 20 µM
- IC50 (NCCIT [4]): > 20 µM

- Activity ([1]; filed as activator): Active
- Activity ([3]; filed as activator): Active
- Activity ([5]; filed as activator): Active
SMILES: CCOC(=O)c1csc(Nc2ccc(C(=O)O)cc2)n1
- Activity (Fibroblast [6]): Active
- IC50 at 48 h [2]: > 20 µM
- IC50 (NCCIT [4]): > 20 µM

- Activity [1]: inactive
- Activity [3]: inactive
- Activity [5]: inactive
SMILES: CCOC(=O)c1csc(Nc2ccc(OC)cc2OC)n1
- IC50 at 48 h [2]: > 20 µM
- IC50 (NCCIT [4]): > 20 µM

- Activity ([1]; filed as activator): Active
- Activity [3]: inactive
- Activity [5]: inactive
SMILES: CCOC(=O)c1csc(Nc2ccc(Br)cc2C)n1
- IC50 at 48 h [2]: > 20 µM
- IC50 (NCCIT [4]): > 20 µM

- Activity [1]: inactive
- Activity [3]: inactive
- Activity [5]: inactive
SMILES: CCOC(=O)c1csc(Nc2ccc(Cl)cc2OC)n1
- IC50 at 48 h [2]: > 20 µM
- IC50 (NCCIT [4]): > 20 µM

- permeability [31]: 70%
- T [7]: 64.7 °C
- Activity [1]: inactive
- fraction unbound (Albumin): 0.1
- Activity [3]: inactive
- Activity [5]: inactive
SMILES: CCOC(=O)c1csc(Nc2ccc(Cl)cc2)n1
- Activity (Drosophila [32]): inactive
- Activity (Fibroblast [6]): Active

- Activity ([1]; filed as activator): Active
- Activity [3]: inactive
- Activity [5]: inactive
SMILES: CCOC(=O)c1csc(Nc2cc(F)ccc2F)n1
- IC50 at 48 h [2]: > 20 µM
- IC50 (NCCIT [4]): > 20 µM

- Activity [1]: inactive
- Activity [3]: inactive
- Activity [5]: inactive
SMILES: CCOC(=O)c1csc(Nc2cc(C(F)(F)F)cc(C(F)(F)F)c2)n1
- IC50 at 48 h [2]: > 20 µM
- IC50 (NCCIT [4]): > 20 µM
